Columns and labels:
[1] = target: Dual specificity protein kinase CLK1 (Homo sapiens) (UniProt P49759); assay: Residual activity of CLK1 at 0.1 uM by microplate scintillation counting
[2] = target: G protein-coupled receptor kinase 4 (Homo sapiens) (UniProt P32298); assay: Residual activity of GRK4 at 0.1 uM by microplate scintillation counting
[3] = target: Aurora kinase B (Homo sapiens, UniProt Q96GD4); assay: Residual activity of Aurora-B at 10 uM by microplate scintillation counting
[4] = target: T1, Inhibitor of nuclear factor kappa-B kinase subunit beta (Homo sapiens) (UniProt O14920); assay: Residual activity of IKK-beta at 1 uM by microplate scintillation counting
T1 sequence (whole entry): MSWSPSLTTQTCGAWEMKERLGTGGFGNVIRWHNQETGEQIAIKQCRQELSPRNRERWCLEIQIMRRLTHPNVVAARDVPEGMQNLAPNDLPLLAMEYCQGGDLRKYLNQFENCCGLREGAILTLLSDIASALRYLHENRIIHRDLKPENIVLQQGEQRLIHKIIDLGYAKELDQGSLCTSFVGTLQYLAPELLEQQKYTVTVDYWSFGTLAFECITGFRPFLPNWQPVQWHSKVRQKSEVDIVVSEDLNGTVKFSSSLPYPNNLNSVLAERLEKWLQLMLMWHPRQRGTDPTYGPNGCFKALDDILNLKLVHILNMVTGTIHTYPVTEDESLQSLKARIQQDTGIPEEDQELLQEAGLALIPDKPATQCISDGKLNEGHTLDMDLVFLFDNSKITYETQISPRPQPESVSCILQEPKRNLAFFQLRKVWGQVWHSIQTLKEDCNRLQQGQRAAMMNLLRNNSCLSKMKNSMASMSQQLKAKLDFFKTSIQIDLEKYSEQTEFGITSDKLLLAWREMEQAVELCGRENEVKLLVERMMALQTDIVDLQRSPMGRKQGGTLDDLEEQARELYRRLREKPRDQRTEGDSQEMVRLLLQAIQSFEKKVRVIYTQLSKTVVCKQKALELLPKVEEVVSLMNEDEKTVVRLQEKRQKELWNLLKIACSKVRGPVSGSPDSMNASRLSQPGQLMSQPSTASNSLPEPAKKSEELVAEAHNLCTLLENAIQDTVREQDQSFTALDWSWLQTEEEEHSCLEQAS

[5] = target: Mitogen-activated protein kinase 9 (Homo sapiens) (UniProt P45984); assay: Residual activity of JNK2 at 1 uM by microplate scintillation counting
[6] = target: Insulin-like growth factor 1 receptor (Homo sapiens) (UniProt P08069); assay: Residual activity of IGF1R at 0.1 uM by microplate scintillation counting
[7] = target: Mitogen-activated protein kinase 1 (Homo sapiens) (UniProt P28482); assay: Residual activity of ERK2 at 0.1 uM by microplate scintillation counting
[8] = target: MAP kinase-activated protein kinase 3 (Homo sapiens) (UniProt Q16644); assay: Residual activity of MAPKAPK3 at 1 uM by microplate scintillation counting
[9] = target: T2, cGMP-dependent protein kinase 2 (Homo sapiens) (UniProt Q13237); assay: Residual activity of PRKG2 at 10 uM by microplate scintillation counting
T2 sequence (whole entry): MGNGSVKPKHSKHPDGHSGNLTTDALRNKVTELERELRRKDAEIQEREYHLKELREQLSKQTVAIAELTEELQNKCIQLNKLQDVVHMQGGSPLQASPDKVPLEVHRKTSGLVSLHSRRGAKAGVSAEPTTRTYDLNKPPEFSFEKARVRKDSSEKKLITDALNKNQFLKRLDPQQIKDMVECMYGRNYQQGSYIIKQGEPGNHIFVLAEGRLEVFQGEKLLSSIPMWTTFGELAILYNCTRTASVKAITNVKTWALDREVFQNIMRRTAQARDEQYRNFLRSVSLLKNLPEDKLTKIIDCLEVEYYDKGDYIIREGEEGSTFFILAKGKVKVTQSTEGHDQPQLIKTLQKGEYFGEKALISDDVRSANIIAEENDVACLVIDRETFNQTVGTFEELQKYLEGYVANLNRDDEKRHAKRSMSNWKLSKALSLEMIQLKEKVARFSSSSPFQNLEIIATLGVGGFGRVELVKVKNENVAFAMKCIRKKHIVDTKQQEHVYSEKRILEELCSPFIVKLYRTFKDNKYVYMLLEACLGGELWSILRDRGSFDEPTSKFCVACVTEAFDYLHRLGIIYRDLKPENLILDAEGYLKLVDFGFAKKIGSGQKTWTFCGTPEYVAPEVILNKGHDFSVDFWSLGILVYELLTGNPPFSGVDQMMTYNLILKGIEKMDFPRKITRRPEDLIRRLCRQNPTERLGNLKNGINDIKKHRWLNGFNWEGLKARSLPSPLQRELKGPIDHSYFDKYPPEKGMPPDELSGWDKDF

[10] = test system: Fibroblast growth factor receptor 1 (Homo sapiens), P11362 [V561M]; assay: Residual activity of FGFR1 V561M mutant at 10 uM by microplate scintillation counting
[11] = target: T3, Myotonin-protein kinase (Homo sapiens) (UniProt Q09013); assay: Residual activity of DMPK at 1 uM by microplate scintillation counting
T3 sequence (whole entry): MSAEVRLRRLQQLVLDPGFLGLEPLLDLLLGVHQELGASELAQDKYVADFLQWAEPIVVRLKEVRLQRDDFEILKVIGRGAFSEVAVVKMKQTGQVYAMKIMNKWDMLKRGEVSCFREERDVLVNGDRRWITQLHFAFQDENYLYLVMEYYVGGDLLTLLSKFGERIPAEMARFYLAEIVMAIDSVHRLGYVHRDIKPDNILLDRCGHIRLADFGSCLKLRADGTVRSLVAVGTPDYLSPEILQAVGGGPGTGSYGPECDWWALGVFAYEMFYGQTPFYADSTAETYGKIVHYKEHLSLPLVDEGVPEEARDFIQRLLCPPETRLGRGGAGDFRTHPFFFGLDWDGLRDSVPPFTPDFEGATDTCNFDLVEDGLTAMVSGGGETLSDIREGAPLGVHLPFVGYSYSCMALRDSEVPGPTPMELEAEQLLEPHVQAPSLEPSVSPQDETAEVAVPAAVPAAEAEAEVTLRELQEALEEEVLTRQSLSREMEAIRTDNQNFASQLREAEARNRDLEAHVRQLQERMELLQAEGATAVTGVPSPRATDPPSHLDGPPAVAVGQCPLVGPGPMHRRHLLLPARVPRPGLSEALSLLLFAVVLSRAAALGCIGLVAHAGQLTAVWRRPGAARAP

[12] = target: Receptor tyrosine-protein kinase erbB-2 (Homo sapiens, UniProt P04626); assay: Residual activity of ERBB2 at 10 uM by microplate scintillation counting
[13] = target: CDK1/Cyclin A (Homo sapiens) (UniProt P06493+P20248); assay: Residual activity of CDK1/Cyclin A at 0.1 uM by microplate scintillation counting; format: protein-complex assay
Sequence of CDK1/Cyclin A (Homo sapiens) (P06493 whole entry, looked up): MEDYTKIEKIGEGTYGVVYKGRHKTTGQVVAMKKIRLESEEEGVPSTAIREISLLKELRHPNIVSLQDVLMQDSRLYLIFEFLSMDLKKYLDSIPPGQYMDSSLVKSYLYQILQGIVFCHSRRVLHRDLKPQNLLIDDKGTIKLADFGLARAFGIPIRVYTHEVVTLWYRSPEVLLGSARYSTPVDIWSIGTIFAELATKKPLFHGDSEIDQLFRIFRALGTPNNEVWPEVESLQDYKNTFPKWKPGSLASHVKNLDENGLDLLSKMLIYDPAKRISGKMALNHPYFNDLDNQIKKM
Sequence of CDK1/Cyclin A (Homo sapiens) (P20248 whole entry, looked up): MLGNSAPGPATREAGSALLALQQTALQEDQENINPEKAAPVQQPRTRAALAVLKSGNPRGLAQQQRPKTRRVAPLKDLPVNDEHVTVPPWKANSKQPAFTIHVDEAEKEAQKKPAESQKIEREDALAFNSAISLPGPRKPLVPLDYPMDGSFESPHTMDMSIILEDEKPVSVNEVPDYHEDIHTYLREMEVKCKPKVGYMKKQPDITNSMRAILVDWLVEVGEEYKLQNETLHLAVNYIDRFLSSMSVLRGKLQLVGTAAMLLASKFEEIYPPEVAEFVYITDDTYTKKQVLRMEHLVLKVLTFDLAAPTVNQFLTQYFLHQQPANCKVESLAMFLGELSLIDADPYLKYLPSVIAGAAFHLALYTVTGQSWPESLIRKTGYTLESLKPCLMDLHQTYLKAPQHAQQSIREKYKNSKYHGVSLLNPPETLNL

Sequence of Insulin-like growth factor 1 receptor (Homo sapiens) (P08069 31-736 limits assumed): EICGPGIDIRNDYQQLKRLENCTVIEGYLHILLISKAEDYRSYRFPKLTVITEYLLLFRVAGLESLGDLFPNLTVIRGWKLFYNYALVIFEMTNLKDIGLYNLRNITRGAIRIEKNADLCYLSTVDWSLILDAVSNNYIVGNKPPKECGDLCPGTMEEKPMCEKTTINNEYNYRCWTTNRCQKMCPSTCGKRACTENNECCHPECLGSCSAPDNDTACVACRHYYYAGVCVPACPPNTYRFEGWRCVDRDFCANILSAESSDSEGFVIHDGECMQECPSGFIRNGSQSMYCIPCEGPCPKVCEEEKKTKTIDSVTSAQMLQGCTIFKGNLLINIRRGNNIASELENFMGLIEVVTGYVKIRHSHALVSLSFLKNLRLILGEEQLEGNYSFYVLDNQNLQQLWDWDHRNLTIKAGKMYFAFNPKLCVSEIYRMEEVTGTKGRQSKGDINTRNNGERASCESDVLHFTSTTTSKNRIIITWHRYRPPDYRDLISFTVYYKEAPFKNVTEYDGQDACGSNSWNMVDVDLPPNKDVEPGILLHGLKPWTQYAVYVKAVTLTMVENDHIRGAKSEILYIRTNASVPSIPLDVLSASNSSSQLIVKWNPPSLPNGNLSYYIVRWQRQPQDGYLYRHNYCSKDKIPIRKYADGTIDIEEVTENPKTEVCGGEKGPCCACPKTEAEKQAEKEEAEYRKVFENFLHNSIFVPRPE
Sequence of Insulin-like growth factor 1 receptor (Homo sapiens) (P08069 741-1367 limits assumed): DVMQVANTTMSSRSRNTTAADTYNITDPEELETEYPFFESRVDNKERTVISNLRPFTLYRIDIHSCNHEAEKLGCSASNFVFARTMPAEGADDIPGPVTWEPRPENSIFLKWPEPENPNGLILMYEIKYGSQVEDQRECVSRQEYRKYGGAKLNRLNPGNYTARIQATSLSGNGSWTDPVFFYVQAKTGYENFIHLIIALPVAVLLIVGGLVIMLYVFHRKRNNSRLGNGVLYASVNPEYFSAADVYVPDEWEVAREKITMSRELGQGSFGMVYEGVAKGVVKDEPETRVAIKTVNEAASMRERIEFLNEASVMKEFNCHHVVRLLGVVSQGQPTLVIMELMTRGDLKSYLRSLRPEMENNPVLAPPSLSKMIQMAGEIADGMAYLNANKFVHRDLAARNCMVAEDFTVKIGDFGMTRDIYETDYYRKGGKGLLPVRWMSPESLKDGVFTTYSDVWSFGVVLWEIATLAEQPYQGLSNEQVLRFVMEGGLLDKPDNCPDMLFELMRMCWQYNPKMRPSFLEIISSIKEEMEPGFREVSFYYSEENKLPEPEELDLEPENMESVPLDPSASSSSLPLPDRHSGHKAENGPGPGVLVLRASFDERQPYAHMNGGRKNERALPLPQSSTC
Sequence of MAP kinase-activated protein kinase 3 (Homo sapiens) (Q16644 whole entry, looked up): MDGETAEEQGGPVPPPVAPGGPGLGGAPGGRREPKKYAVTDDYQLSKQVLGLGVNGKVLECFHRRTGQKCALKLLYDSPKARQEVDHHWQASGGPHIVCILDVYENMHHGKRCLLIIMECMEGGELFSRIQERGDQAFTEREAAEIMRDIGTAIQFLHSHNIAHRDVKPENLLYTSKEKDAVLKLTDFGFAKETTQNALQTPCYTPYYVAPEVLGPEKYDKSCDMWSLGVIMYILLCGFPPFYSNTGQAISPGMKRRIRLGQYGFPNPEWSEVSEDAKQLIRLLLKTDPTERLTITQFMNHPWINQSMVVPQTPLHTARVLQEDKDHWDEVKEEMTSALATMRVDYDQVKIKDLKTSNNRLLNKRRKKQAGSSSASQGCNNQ
Sequence of Aurora kinase B (Q96GD4 whole entry): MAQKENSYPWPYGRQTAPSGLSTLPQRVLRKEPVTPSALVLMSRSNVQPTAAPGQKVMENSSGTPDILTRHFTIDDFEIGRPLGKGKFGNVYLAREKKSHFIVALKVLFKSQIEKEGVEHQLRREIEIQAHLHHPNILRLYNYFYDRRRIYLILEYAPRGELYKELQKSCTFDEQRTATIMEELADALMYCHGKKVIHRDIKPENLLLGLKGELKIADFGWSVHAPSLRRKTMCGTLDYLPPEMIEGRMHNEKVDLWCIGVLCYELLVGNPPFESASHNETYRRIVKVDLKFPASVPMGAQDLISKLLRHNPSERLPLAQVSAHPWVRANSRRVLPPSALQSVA
Sequence of Dual specificity protein kinase CLK1 (Homo sapiens) (P49759 whole entry, looked up): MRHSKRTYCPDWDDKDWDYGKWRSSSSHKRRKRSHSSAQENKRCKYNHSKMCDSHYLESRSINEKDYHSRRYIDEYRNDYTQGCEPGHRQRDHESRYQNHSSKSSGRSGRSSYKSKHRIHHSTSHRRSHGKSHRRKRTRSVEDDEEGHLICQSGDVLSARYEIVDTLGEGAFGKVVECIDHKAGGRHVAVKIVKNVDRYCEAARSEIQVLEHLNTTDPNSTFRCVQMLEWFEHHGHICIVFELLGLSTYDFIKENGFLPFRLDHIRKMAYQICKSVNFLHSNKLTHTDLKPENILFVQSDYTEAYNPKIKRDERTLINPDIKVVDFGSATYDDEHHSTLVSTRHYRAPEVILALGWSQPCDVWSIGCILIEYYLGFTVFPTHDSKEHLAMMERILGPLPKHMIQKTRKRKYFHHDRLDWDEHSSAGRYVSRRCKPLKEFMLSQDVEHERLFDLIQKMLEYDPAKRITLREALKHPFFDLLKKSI
Sequence of G protein-coupled receptor kinase 4 (Homo sapiens) (P32298 whole entry, looked up): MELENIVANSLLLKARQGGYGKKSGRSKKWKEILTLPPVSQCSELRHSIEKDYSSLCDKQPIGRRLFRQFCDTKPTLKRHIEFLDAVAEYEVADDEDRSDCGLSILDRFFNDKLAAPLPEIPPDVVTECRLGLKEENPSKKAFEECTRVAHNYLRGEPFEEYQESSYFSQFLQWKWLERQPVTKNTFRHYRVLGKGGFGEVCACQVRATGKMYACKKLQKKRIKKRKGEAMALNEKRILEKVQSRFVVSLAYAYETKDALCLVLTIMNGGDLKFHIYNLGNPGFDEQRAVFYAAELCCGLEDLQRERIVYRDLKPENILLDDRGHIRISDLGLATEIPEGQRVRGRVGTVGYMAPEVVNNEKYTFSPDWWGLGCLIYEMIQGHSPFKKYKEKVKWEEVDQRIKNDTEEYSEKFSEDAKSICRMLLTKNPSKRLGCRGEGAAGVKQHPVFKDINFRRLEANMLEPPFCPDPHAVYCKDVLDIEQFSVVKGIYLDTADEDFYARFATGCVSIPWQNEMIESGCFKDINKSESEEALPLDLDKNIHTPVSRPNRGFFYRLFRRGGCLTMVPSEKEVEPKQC
Sequence of Mitogen-activated protein kinase 1 (Homo sapiens) (P28482 whole entry): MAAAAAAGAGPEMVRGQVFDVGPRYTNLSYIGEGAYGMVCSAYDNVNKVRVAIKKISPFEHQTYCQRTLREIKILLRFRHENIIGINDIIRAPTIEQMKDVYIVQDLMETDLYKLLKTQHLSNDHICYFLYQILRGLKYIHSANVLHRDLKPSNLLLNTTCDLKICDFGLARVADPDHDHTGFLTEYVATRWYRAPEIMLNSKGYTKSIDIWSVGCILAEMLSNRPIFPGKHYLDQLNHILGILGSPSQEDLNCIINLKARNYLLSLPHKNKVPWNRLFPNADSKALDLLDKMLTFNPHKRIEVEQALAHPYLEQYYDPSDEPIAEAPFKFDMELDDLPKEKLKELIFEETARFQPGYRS
Sequence of Mitogen-activated protein kinase 9 (Homo sapiens) (P45984 whole entry, looked up): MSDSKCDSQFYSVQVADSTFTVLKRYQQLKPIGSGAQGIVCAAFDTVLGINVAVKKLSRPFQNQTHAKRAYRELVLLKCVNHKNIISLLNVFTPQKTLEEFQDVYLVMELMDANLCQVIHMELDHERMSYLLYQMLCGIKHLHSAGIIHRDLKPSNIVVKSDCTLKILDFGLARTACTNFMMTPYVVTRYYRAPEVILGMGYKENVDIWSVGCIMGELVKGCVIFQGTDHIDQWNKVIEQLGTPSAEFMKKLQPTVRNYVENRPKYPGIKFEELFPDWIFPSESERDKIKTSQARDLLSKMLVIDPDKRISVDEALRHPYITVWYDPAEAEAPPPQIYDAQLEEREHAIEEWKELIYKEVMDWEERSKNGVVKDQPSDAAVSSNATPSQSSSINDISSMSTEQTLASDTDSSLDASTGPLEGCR

| SMILES | residual activity [1] | residual activity [2] | residual activity [3] | residual activity [4] | residual activity [5] | residual activity [6] | residual activity [7] | residual activity [8] | residual activity [9] | residual activity [10] | residual activity [11] | residual activity [12] | residual activity [13] |
| --- | --- | --- | --- | --- | --- | --- | --- | --- | --- | --- | --- | --- | --- |
| COc1cc2c(Oc3ccc(-c4nc5ccccc5s4)cc3)ncnc2cc1OCCCN1CCN(C)CC1 | 94% | 84% | 5% | 86% | 121% | 99% | 85% | 85% | 119% | 32% | 106% | 91% | 94% |
| COc1cc2c(Oc3ccc(-c4nc5ccccc5s4)cc3)ncnc2cc1OCCCN1CCCC1 | 114% | 90% | 3% | 98% | 90% | 114% | 78% | 94% | 92% | 47% | 104% | 110% | 109% |
| COc1cc2c(Oc3ccc(-c4nc5ccccc5s4)cc3F)ncnc2cc1OCCCN1CCN(C)CC1 | 96% | 88% | 3% | 88% | 119% | 113% | 96% | 98% | 96% | 26% | 121% | 62% | 99% |
